From patent publication US8293769B2, “CSF-1R inhibitors, compositions, and methods of use” (Novartis AG, priority 2008, dated 2012)

How the values were obtained:
[1] = biological target: T1, cytoplasmic domain of the human CSF-1R (Homo sapiens, UniProt P07333); assay: In vitro kinase assay for CSF-1R (AlphaScreen); assay type: biochemical; details: tested at about 1 μM; read-out: CSF1RK 1 percent inhibition
T1 construct: Recombinant protein corresponding to the cytoplasmic domain of the human CSF-1R; purchased Invitrogen Corporation, Carlsbad, Calif; PV3249
T1 sequence (P07333 539-972 limits assumed): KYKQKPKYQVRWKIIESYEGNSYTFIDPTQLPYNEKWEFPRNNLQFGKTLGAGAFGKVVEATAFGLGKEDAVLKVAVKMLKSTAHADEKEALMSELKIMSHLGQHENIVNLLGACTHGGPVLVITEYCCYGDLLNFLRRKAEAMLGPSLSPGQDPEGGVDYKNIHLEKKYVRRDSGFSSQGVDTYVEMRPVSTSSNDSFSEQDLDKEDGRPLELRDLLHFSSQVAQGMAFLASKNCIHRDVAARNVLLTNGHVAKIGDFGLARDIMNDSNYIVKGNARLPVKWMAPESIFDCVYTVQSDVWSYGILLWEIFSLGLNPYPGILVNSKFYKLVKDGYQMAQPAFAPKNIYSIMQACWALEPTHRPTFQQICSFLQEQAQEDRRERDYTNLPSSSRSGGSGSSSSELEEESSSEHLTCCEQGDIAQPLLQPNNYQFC
Outline: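 Recombinant CSF-1R cytoplasmic domain (4 nM) phosphorylated biotinylated peptide (0.05 μM) at 1.0 μM ATP in HEPES with Mg2+/Mn2+, 2 h at room temperature, compounds from 25 μM in 3-fold steps. AlphaScreen anti-phosphotyrosine PT66 detection; IC50 by non-linear regression.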

[2] = tested on: MNFS60 (murine AML cells); assay: Cell viability assay in MCSF dependent MNFS60 cells (Cell Titer Glo); assay type: cell-based; details: Mus musculus; tested at about 1 μM; MCSF 10 ng/mL, 72 hrs; read-out: CPEC50 MNFS60MCSF percent inhibition
Protocol: Cell viability was assessed by Cell Titer Glo, Promega. MNFS60 (murine AML cells) were seeded in TC treated 96-well plates at a density of 5,000 cells per well in RPMI-1640, 10% FBS, and 1% Penicillin Streptomycin prior to addition of compound. Test compounds were serially diluted (3 fold) in DMSO to 500× the final concentration. For each concentration of test compound, 2 μl (500×) aliquots of compound or 100% DMSO (control) were diluted in 500 μl of culture medium that contained 2× final concentration of growth factor MCSF for 2× concentration and then diluted 1× on the cells. Final concentration of MCSF is 10 ng/mL. Cells were incubated for 72 hrs at 37° C., 5% CO2. After the incubation 100 μl Cell Titer Glo is added to each well to determine viable cells. The assay was performed according to the manufacturer's instruction (Promega Corporation, Madison, Wis. USA). Each experimental condition was performed in triplicate. Raw data was imported in Abase and EC50s calculated with XL-fit data analysis software: Relative light units of wells that contained cells without MCSF in the media and as a consequence didn't grow were defined as 100% inhibited.

[3] = biological target: T2, cKIT (Homo sapiens, UniProt P10721); assay: cKIT kinase in vitro biochemical assay (alphascreen); details: tested at about 1 μM; read-out: CKIT percent inhibition
T2 construct: The kinase domain of cKIT was assayed in 50 mM Hepes; purchased Upstate 14-559
T2 sequence (P10721 589-937 limits assumed): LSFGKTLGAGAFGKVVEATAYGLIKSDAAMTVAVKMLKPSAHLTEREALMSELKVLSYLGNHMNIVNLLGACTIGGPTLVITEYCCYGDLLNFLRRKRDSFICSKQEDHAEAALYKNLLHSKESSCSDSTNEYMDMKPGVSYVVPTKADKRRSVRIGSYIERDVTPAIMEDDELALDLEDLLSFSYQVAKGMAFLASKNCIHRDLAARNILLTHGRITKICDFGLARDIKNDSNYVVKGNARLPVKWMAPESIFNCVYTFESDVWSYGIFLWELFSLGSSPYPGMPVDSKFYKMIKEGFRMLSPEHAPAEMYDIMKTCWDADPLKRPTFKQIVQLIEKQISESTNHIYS

[4] = biological target: T3, PDGFRb (Homo sapiens, UniProt P09619); assay: PDGFRb kinase in vitro biochemical assay (alphascreen); details: tested at about 1 μM; read-out: PDGF RK BETA percent inhibition
T3 construct: The kinase domain of PDGFRβ was assayed in 50 mM Hepes; purchased Invitrogen P3082
T3 sequence (P09619 600-962 limits assumed): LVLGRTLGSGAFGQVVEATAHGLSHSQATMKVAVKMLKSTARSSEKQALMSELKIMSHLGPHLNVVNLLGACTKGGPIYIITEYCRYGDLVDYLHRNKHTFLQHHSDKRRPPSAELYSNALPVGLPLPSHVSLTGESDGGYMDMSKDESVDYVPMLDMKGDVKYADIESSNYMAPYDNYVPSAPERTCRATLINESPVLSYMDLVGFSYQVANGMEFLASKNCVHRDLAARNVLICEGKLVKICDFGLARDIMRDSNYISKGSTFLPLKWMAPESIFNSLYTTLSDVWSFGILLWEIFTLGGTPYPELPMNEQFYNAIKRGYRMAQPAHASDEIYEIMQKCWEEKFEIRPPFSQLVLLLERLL

Structure (SMILES) | inhibition at 1 µM [1] [%] | inhibition at 1 µM [3] [%] | inhibition at 1 µM [4] [%] | inhibition at 1 µM [2] [%]
O[C@@H]1CCCC[C@H]1Nc1nc2ccc(Oc3ncnc4ccccc34)cc2s1 [Compound 18, (1R,2R)-2-(6-(quinazolin-4-yloxy)benzo[d]thiazol-2-ylamino)cyclohexanol] | 100 | 22 | 11 | 38
c1cc(-n2cncn2)cc(Oc2ccc3nc(NCC4CCCCC4)sc3c2)n1 [Compound 24, 6-(4-(1H-1,2,4-triazol-1-yl)pyridin-2-yloxy)-N-(cyclohexylmethyl)benzo[d]thiazol-2-amine] | 44 | 7 | 9 | 0
Cn1nccc1-c1nccc(Oc2ccc3nc(N[C@@H]4CCCC[C@H]4O)sc3c2)n1 [Compound 26, (1R,2R)-2-(6-(2-(1-methyl-1H-pyrazol-5-yl)pyrimidin-4-yloxy)benzo[d]thiazol-2-ylamino) cyclohexanol] | 100 | 24 | 20 | 19
Nc1cc(Oc2ccc3nc(NCC4CCCCC4)sc3c2)ncn1 [Compound 8, 6-(6-aminopyrimidin-4-yloxy)-N-(cyclohexylmethyl) benzo[d]thiazol-2-amine] | 100 | 75 | 46 | 30
Cn1cc(-c2nccc(Oc3ccc4nc(N[C@@H]5CCCC[C@H]5O)sc4c3)n2)cn1 [Compound 23, (1R,2R)-2-(6-(2-(1-methyl-1H-pyrazol-4-yl)pyrimidin-4-yloxy)benzo[d]thiazol-2-ylamino) cyclohexanol] | 100 | 19 | 7 | 100
COc1cc2ncnc(Oc3ccc4nc(N[C@@H]5CCCC[C@H]5O)sc4c3)c2cc1OC [Compound 19, (1R,2R)-2-(6-(6,7-dimethoxyquinazolin-4-yloxy)benzo [d]thiazol-2-ylamino) cyclohexanol] | 100 | 34 | 30 | 100
COc1cc2ncnc(Oc3ccc4nc(NCC5CCCCC5)sc4c3)c2cc1OC [Compound 17, N-(cyclohexylmethyl)-6-(6,7-dimethoxyquinazolin-4-yloxy)benzo[d] thiazol-2-amine] | 100 | 99 | 98 | 100
Nc1cc(Oc2ccc3nc(N[C@@H]4CCCC[C@H]4O)sc3c2)ncn1 [Compound 9, (1R,2R)-2-(6-(6-aminopyrimidin-4-yloxy)benzo[d]thiazol-2-ylamino) cyclohexanol] | 97 | 13 | 2 | 15
Cn1cc(-c2nccc(Oc3ccc4nc(NCC5CCCCC5)sc4c3)n2)cn1 [Compound 21, N-(cyclohexylmethyl)-6-(2-(1-methyl-1H-pyrazol-4-yl)pyrimidin-4-yloxy) benzo[d]thiazol-2-amine] | 100 | 100 | 92 | 100

Further lines, with some results ahead:

inhibition at 1 µM [1] [%] | inhibition at 1 µM [3] [%] | inhibition at 1 µM [4] [%] | Structure (SMILES) | inhibition at 1 µM [2] [%]
100 | 10 | 14 | O[C@@H]1CCCC[C@H]1Nc1nc2ccc(Oc3cccnc3)cc2s1 [Compound 110, (1R,2R)-2-(6-(pyridin-3-yloxy)benzo[d]thiazol-2-ylamino)cyclohexanol] | 54
98 | 12 | 13 | CNC(=O)c1ccc(Oc2ccc3nc(N[C@@H](C)C4CCCCC4)sc3c2)cn1 [Compound 53, (S)-5-(2-(1-cyclohexylethylamino)benzo[d]thiazol-6-yloxy)-N-methylpicolinamide] | 13
100 | 28 | 5 | O=C(c1cncc(-c2cncc(Oc3ccc4nc(N[C@@H]5CCCC[C@H]5O)sc4c3)c2)c1)N1CCOCC1 [Compound 75, (5′-(2-((1R,2R)-2-hydroxycyclohexylamino)benzo[d]thiazol-6-yloxy)-3,3′-bipyridin-5-yl) (morpholino)methanone] | 33
100 | 74 | 31 | C[C@H](Nc1nc2ccc(Oc3ccc(NO)nc3)cc2s1)C1CCCCC1 [Compound 101, (S)—N-(1-cyclohexylethyl)-6-(6-(hydroxyamino)pyridin-3-yloxy)benzo[d]thiazol-2-amine] | 58
100 | 23 | 9 | O[C@@H]1CCCC[C@H]1Nc1nc2ccc(Oc3cncc(-c4cccnc4)n3)cc2s1 [Compound 96, (1R,2R)-2-(6-(6-(pyridin-3-yl)pyrazin-2-yloxy)benzo[d]thiazol-2-ylamino) cyclohexanol] | 32
100 | 99 | 100 | O[C@@H]1CCCC[C@H]1Nc1nc2ccc(Oc3cncc(-c4cnccn4)c3)cc2s1 [Compound 84, (1R,2R)-2-(6-(5-(pyrazin-2-yl)pyridin-3-yloxy)benzo[d]thiazol-2-ylamnino) cyclohexanol] | 100
96 | 22 | 8 | CNC(=O)c1ccc(Oc2ccc3nc(NCC4CCCCC4)sc3c2)cn1 [Compound 48, 5-(2-(cyclohexylmethylamino)benzo [d]thiazol-6-yloxy)-N-methylpicolinamide] | 0
100 | 64 | 13 | O[C@@H]1CCCC[C@H]1Nc1nc2ccc(Oc3cncc(-c4cncs4)c3)cc2s1 [Compound 70, (1R,2R)-2-(6-(5-(thiazol-5-yl)pyridin-3-yloxy)benzo[d]thiazol-2-ylamino) cyclohexanol] | 100
100 | 66 | 0 | CCn1cc(-c2cncc(Oc3ccc4nc(N[C@@H]5CCCC[C@H]5O)sc4c3)c2)cn1 [Compound 80, (1R,2R)-2-(6-(5-(1-ethyl-1H-pyrazol-4-yl)pyridin-3-yloxy)benzo[d]thiazol-2-ylamino)cyclohexanol] | 100
100 | 60 | 12 | Cn1cc(-c2cncc(Oc3ccc4nc(N[C@@H]5CCCC[C@H]5O)sc4c3)c2)cn1 [Compound 46, (1R,2R)-2-(6-(5-(1-methyl-1H-pyrazol-4-yl)pyridin-3-yloxy)benzo[d]thiazol-2-ylamino)cyclohexanol] | 100
100 | 59 | 1 | COc1cncc(-c2cncc(Oc3ccc4nc(N[C@@H]5CCCC[C@H]5O)sc4c3)c2)c1 [Compound 74, (1R,2R)-2-(6-(5′-methoxy-3,3′-bipyridin-5-yloxy)benzo [d]thiazol-2-ylamino) cyclohexanol] | 100
100 | 75 | 39 | c1nc(Oc2ccc3nc(NCC4CCCCC4)sc3c2)c2ccsc2n1 [Compound 37, N-(cyclohexylmethyl)-6-(thieno[2,3-d]pyrimidin-4-yloxy) benzo[d]thiazol-2-amine] | 0
